{
  "source": "ChEMBL document CHEMBL1134162",
  "about": "(Bioorg Med Chem Lett, 2001)",
  "key": {"[1]": {"molecular_target": "T1, Mu-type opioid receptor (Cavia porcellus, UniProt P97266)", "T1 sequence (P97266 whole entry)": "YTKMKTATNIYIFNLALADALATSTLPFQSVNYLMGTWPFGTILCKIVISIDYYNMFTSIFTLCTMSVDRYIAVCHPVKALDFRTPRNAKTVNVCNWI", "assay": "Inhibitory activity against Opioid receptor mu 1 of (endomorphin 2) in guinea pig ileum was determined"}, "[2]": {"molecular_target": "T1, Mu-type opioid receptor", "assay": "In vitro inhibitory activity was determined against Opioid receptor mu 1 in guinea pig ileum"}, "[3]": {"molecular_target": "T2, Delta-type opioid receptor (Mus musculus, UniProt P32300)", "T2 sequence (P32300 whole entry)": "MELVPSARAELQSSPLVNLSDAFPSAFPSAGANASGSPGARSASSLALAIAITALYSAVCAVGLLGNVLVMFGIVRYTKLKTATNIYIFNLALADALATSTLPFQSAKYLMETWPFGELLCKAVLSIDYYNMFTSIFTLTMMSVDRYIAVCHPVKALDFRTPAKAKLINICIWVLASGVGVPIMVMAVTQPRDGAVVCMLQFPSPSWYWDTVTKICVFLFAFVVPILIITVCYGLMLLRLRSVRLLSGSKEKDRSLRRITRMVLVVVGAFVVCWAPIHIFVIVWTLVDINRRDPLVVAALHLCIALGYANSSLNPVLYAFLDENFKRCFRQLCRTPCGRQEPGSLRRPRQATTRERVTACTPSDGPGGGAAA", "assay": "Inhibitory activity against Opioid receptor delta 1 of (endomorphin 2) in mouse vas deferens was determined"}, "[4]": {"molecular_target": "Mu-type opioid receptor (Rattus norvegicus, UniProt P33535)", "sequence (P33535 whole entry)": "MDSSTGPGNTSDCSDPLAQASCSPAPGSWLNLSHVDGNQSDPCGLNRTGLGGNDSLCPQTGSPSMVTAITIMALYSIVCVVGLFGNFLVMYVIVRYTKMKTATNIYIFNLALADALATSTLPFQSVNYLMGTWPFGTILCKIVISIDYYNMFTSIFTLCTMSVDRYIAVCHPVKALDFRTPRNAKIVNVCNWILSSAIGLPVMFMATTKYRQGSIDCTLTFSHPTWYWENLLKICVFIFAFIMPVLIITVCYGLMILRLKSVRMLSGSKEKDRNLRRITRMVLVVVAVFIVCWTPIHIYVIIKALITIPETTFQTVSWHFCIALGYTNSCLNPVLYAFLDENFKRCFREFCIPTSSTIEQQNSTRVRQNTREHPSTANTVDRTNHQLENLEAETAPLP", "assay": "Binding affinity was determined towards Opioid receptor mu 1 in rat brain synaptosomes using [3H]DAMGO as radioligand."}, "[5]": {"molecular_target": "T2, Delta-type opioid receptor", "assay": "Inhibitory activity against delta receptor of (endomorphin 2) in mouse vas deferens was determined"}, "[6]": {"molecular_target": "Mu-type opioid receptor (Rattus norvegicus) (UniProt P33535)", "sequence (P33535 whole entry)": "as above", "description": "Selectivity ratio was determined by taking the ratio of Opioid receptor mu 1 to that of Opioid receptor delta 1"}, "[7]": {"molecular_target": "T2, Delta-type opioid receptor", "assay": "In vitro inhibitory activity was determined against Opioid receptor delta 1 in mouse vas deferens"}},
  "data": [
    {"compound": "Cc1cccc(C)c1C[C@H](NC(=O)CNC(=O)CNC(=O)[C@@H](N)Cc1c(C)cc(O)cc1C)C(=O)N[C@@H](CC(C)C)C(=O)O", "values": [
      {"measurement": "Kb", "setting": "[1]", "result": 126, "unit": "nM"},
      {"measurement": "IC50", "setting": "[2]", "result": "> 10", "unit": "nM"},
      {"measurement": "IC50", "setting": "[3]", "result": "> 10", "unit": "nM"},
      {"measurement": "Ki", "setting": "[4]", "result": 5.61, "unit": "nM"},
      {"measurement": "Kb", "setting": "[5]", "result": 2570, "unit": "nM"},
      {"measurement": "SR", "setting": "[6]", "result": 0.14}
    ]},
    {"compound": "Cc1cc(O)cc(C)c1C[C@H](N)C(=O)NCC(=O)NCC(=O)N[C@@H](Cc1ccccc1)C(=O)N[C@@H](CC(C)C)C(=O)O", "values": [
      {"measurement": "IC50", "setting": "[2]", "result": 0.55, "unit": "nM"},
      {"measurement": "IC50", "setting": "[7]", "result": 0.17, "unit": "nM"},
      {"measurement": "Ki", "setting": "[4]", "result": 0.0068, "unit": "nM"},
      {"measurement": "SR", "setting": "[6]", "result": 0.22}
    ]},
    {"compound": "Cc1cc(O)cc(C)c1C[C@H](N)C(=O)NCC(=O)NCC(=O)N[C@H](Cc1c(C)cccc1C)C(=O)N[C@@H](CC(C)C)C(=O)O", "values": [
      {"measurement": "IC50", "setting": "[2]", "result": 2, "unit": "nM"},
      {"measurement": "IC50", "setting": "[7]", "result": 1.45, "unit": "nM"},
      {"measurement": "Ki", "setting": "[4]", "result": 0.03, "unit": "nM"},
      {"measurement": "SR", "setting": "[6]", "result": 0.19}
    ]},
    {"compound": "Cc1cccc(C)c1C[C@H](NC(=O)CNC(=O)CNC(=O)[C@@H](N)Cc1ccc(O)cc1)C(=O)N[C@@H](CC(C)C)C(=O)O", "values": [
      {"measurement": "IC50", "setting": "[2]", "result": "> 10", "unit": "nM"},
      {"measurement": "IC50", "setting": "[7]", "result": "> 10", "unit": "nM"},
      {"measurement": "SR", "setting": "[6]", "result": 0.28}
    ]},
    {"compound": "Cc1cccc(C)c1C[C@@H](NC(=O)CNC(=O)CNC(=O)[C@@H](N)Cc1ccc(O)cc1)C(=O)N[C@@H](CC(C)C)C(=O)O", "values": [
      {"measurement": "IC50", "setting": "[2]", "result": 808, "unit": "nM"},
      {"measurement": "IC50", "setting": "[7]", "result": 624, "unit": "nM"},
      {"measurement": "Ki", "setting": "[4]", "result": 1.25, "unit": "nM"},
      {"measurement": "SR", "setting": "[6]", "result": 0.07}
    ]}
  ]
}
